Reference: patent publication US11007148B2, “Amphiphilic block copolymers for delivery of active agents” (priority 2014, dated 2021)
Where a name gives a salt, the structure may show the parent alone.

Key:
[1] = free drug; cited from earlier work
[2] = mouse, in vivo
Source text: In this example the kinetic properties of loaded micelles with PTX are studied in vivo using the fluorophore labels Cy7 and Cy5.5. Cy7 was covalently linked to the polymer chain and reports about the fate of the injected micelles; Cy5.5 was physically loaded in the core of the micelles and used as a modal drug.
CD-1 nude female mice (n=5) were fed with chlorophyll-free food pellets and water ad libitum, and caged in ventilated cages and clinically controlled rooms and atmosphere.

half-life of the Cy5.5 label relative to the micelles [2] | Compound | Log P [1]
– | COc1nc2ccc(Br)cc2cc1[C@@H](c1ccccc1)[C@@](O)(CCN(C)C)c1cccc2ccccc12 [Bedaquiline] | 7.59
– | C[C@H](NC(=O)Cc1cc(F)cc(F)c1)C(=O)N[C@H](C(=O)OC(C)(C)C)c1ccccc1 [DAPT] | 3.54
– | COc1cccc2c1C(=O)c1c(O)c3c(c(O)c1C2=O)C[C@@](O)(C(=O)CO)C[C@@H]3O[C@H]1C[C@H](N)[C@H](O)[C@H](C)O1 [DOX•HCl, doxorubicin hydrochloride] | 2.82
– | CC(=O)O[C@H]1C(=O)[C@@]2(C)[C@H]([C@H](OC(=O)c3ccccc3)[C@]3(O)C[C@H](OC(=O)[C@H](O)[C@@H](NC(=O)c4ccccc4)c4ccccc4)C(C)=C1C3(C)C)[C@]1(OC(C)=O)CO[C@@H]1C[C@@H]2O [Paclitaxel] | 4.7
shorter half-life | Cy5.5 | –
